Reference: BigSolDB 2.1

Conditions: in water

O=S(=O)([O-])c1ccc(Nc2nc(Nc3ccc(/C=C/c4ccc(Nc5nc(Nc6ccc(S(=O)(=O)[O-])cc6)nc(N6CCOCC6)n5)cc4S(=O)(=O)[O-])c(S(=O)(=O)[O-])c3)nc(N3CCOCC3)n2)cc1.[Na+].[Na+].[Na+].[Na+]
Conditions	solubility (mole fraction)
273.15 K	0.00029
278.45 K	0.000399
283.35 K	0.000545
288.75 K	0.000757
293.25 K	0.00099
298.75 K	0.00137
303.15 K	0.00179
307.55 K	0.00219
310.75 K	0.00264
313.95 K	0.00319
